From US5137887A, “Salts of optically active 4-hydroxy-8(3-lower alkoxy-4-phenylsulfinylphenyl)pyrazolo(1,5-A)-1,3,5- triazines and a process for production thereof” (Otsuka Pharmaceutical Factory, Inc., priority 1989, dated 1992) come the findings set out here.

One series in a line: Solubility test. In kind it is physicochemical. The settings on record: shaken at 25° C., HPLC. How it is done:
Solubility tests with the above respective samples using water (distilled water for injection) and physiological saline as solvents were performed as follows.
Using an incubator (Taiyo Kagaku Kogyo, M-100), the tube was shaken at 25° C. After 4 hours, the content was filtered through a 0.45 μm filter and the filtrate was diluted 100-fold with mobile phase to prepare a test solution. Separately, 40.0 mg of Sample I (racemic form) was accurately weighed and made up with water to make exactly 200 ml. Then, 1 ml of this solution was accurately taken and diluted with mobile phase to make exactly 20 ml (10 μg/ml) of standard solution. Using the above test solutions and the standard solution, the solubilities of the respective samples were determined.

The test system of series [1] is xanthine dehydrogenase activity in the liver. Description: Xanthine dehydrogenase inhibitory activity test (enzyme activity in liver after oral administration). The settings on record: male ICR rats, 5 mg/kg orally in 0.5% CMC; for Enzymatic activity in the liver isolated after 4 hr.: liver excised 4 hours after administration; for Enzymatic activity in the liver isolated after 8 hr.: liver excised 8 hours after administration. The format is in vivo. How it is done:
Xanthine dehydrogenase inhibitory activity test
The test was performed using male ICR […] (aged 6 weeks, b.w. 28.0-40.6 g). The compounds of the invention as obtained in Example 2 were respectively suspended in 0.5% carboxymethylcellulose (CMC) solution and the suspensions were administered orally at the rate of 10 ml/kg (Test Group 1 and Test Group 2). The compound of the invention and its dosage used in each test group are shown below.
After 4 and 8 hours from the administration, animals in each group were sacrified, the liver was excised, and the xanthine dehydrogenase activity in the liver was assayed by the following general procedure.
Thus, a homogenate of the liver was diluted 5-fold with 100 mM Tris-HCl buffer (hereinafter referred to merely as buffer). Then, 50 μl of this dilution, 25 μl of a buffer dilution of NAD^+ (20 mM) and 25 μl of a buffer solution of potassium oxonate were added to 300 μl of the buffer (the concentrations of NAD^+ and potassium oxonate in the total solution were 1 mM each) and the mixture was incubated at 25° C. for 5 minutes. This incubate was centrifuged and the uric acid in the supernatant was estimated by high performance liquid chromatography (HPLC). The value was taken as the pre-treatment baseline.
On the other hand, to a preincubate obtained in the same manner as above was added 100 μl of a buffer solution of xanthine (1 mM) and the mixture was incubated at 25° C. for 5 minutes. The reaction was stopped with 50 μl of 6M perchloric acid and the reaction mixture was centrifuged in the same manner as above. The supernatant was neutralized with an aqueous solution of sodium dihydrogen phosphate and uric acid produced was assayed by HPLC. The value was taken as the post-treatment value.
From the difference between the above post-treatment value and pre-treatment baseline value of uric acid, xanthine dehydrogenase activity was determined.

The mark [2] stands for this setting: water, water (distilled water for injection), read-out: Solubility in water.
Where [3] appears, read: physiological saline, read-out: Solubility in physiological saline.

Read-outs that look alike come from different tables or passages of the source.

Usually solubility stands for the dissolved amount per volume that the medium holds. `COc1cc(-c2cnn3c([O-])ncnc23)ccc1[S+]([O-])c1ccccc1.O.[Na+]` (racemic) [Sample I, Sodium (±)-8-(3-methoxy-4-phenylsulfinylphenyl)pyrazolo[1,5-a]-1,3,5-triazine-4-olate monohydrate, reference compound]: the “Solubility in physiological saline” value in “Solubility test” (physiological saline, 4 hours, listed as sodium salt of the racemic compound, monohydrate, 240 min) is listed as “about 0.08 w/w %”; in “Solubility test” (physiological saline, 4 hours, monohydrate, 240 min) it was 0.0083 w/w %. The Solubility in water result in the series “Solubility test” (water (distilled water for injection), 4 hours, listed as sodium salt of the above racemic compound, monohydrate, 240 min) was “about 0.2 w/w %”. Also, the solubility at 4 h in “Solubility test” (setting [2]) worked out at 2.21 mg/mL.

Take `COc1cc(-c2cnn3c([O-])ncnc23)ccc1[S+]([O-])c1ccccc1.O.O.[Na+]` (single isomer, unassigned) [Sample II, Sodium (-)-8-(3-methoxy-4-phenylsulfinylphenyl)pyrazolo[1,5-a]-1,3,5-triazine-4-olate dihydrate]: the solubility at 4 h in the series “Solubility test” (setting [3]) and in the series “Solubility test” (setting [2]) was no less than 500 mg/mL throughout. Also, the “Enzymatic activity in the liver isolated after 4 hr.” value in series [1] (control 152 ± 21, listed as Test group 1, dihydrate) came to 7 ± 4 mU/g. Further, the “Enzymatic activity in the liver isolated after 8 hr.” value in series [1] (control 137 ± 31, listed as Test group 1, dihydrate) is listed as 17 ± 7 mU/g.

With `COc1cc(-c2cnn3c([O-])ncnc23)ccc1[S+]([O-])c1ccccc1.O.O.[Na+]` (single isomer, unassigned) [Sample III, Sodium (+)-8-(3-methoxy-4-phenylsulfinylphenyl)pyrazolo[1,5-a]-1,3,5-triazine-4-olate dihydrate], the “Enzymatic activity in the liver isolated after 4 hr.” value in series [1] (control 152 ± 21, listed as Test group 2, dihydrate) is 33 ± 16 mU/g. The “Enzymatic activity in the liver isolated after 8 hr.” value in series [1] (control 137 ± 31, listed as Test group 2, dihydrate) is 22 ± 10 mU/g.

Turning to `COc1cc(-c2cnn3c(O)ncnc23)ccc1[S+]([O-])c1ccccc1` (single isomer, unassigned) [Sample IV, Calcium bis[(-)-8-(3-methoxy-4-phenylsulfinylphenyl)pyrazolo[1,5-a]-1,3,5-triazine-4-olate] dihydrate], the solubility at 4 h is no less than 500 mg/mL in “Solubility test” (setting [3]) and no less than 500 mg/mL in the series “Solubility test” (water (distilled water for injection), read-out: Solubility in water).
